Paper PMC13242511, “Disrupting Notch signalling by a small molecule inhibiting dihydroorotate dehydrogenase activity” (Scientific Reports, 2026)

Assays:
Format in all cases: cell-based
NOTCH1 = experiment: Cell surface biotinylation experiment; conditions: MDA-MB-231, 2 µM, 24 h; Fig. 8B
Procedure: For labelling of membrane proteins, MDA-MB-231 cells were grown to 80% confluency in 6-well cell culture dishes (ThermoFisher, cat #104675) and treated with 2 µM of the indicated compounds for 24 h. Plates were then put on ice for 10 min to slow down cellular metabolism and halt internalisation of membrane proteins. Next, 0.5 mg/ml Sulfo-NHS-Biotin (ThermoFisher, cat #21217) in PBS was added to every second well for 40 min and non-treated wells served as controls. Excess of biotin was removed by washing the plates with PBS followed by incubation with 100 mM glycin (Sigma-Aldrich, cat #G8898) in PBS on ice. Wells were washed twice with ice-cold PBS and next, 500 µl lysis buffer was added to each well (50 mM Tris–HCl pH 7.4, 150 mM NaCl, 1% Triton X-100, (Sigma-Aldrich, cat #X100), 2 mM EDTA, including protease and phosphatase inhibitors, Thermofisher, cat #78442). […] NOTCH1 TMICD western blot band intensity was quantified using Fiji (ImageJ) after background subtraction. Relative enrichment of NOTCH1 protein present at the cell surface was calculated with IP/Input ratio (IP NOTCH1/Input NOTCH1). Input and corresponding IP fraction of a treatment were separated on the same gel and bands were measured while non-saturated. Two independent biological replicates were assessed.

MDA-MB-436 cells = experiment: Growth inhibition, metabolic activity (CellTiter-Glo); conditions: Homo sapiens; MDA-MB-436, six days; read-out: approximated IC50, metabolic activity
Excerpt: (§1) We next investigated whether compounds A-E affected growth and viability of cell lines from T-cell acute lymphoblastic leukaemia (T-ALL) and breast cancer, two tumour types in which elevated Notch signalling has been implicated in tumorigenesis. […] When testing analogues of compounds B and C, five of the seven B analogues and one of the two C analogues produced dose–response curves and IC50s, which however were higher compared to the original hits (Supplemental Fig. 5A; IC50s are presented in Supplemental Table 6).
(§2) Compounds were spotted on white 384-well tissue culture plates (Greiner, cat #781080) using an Echo 525 Acoustic liquid handler (Labcyte). Cells were grown to 80% confluence, detached if required, counted and 20 µl containing 2000–4000 cells per well was then seeded in each well and cultivated for three (4,000 cells seeded) and six days (2,000 cells seeded). […] Luciferase activity (reading out metabolic activity) was determined using the CellTiter-Glo 2.0 kit (CTG, Promega, cat #G9242) following the manufacturer’s instructions and luminescence was measured on a SpectraMaxi3 or Varioscan plate reader (Molecular Devices, Thermofisher).

BT-20 cells = experiment: as above; conditions: Homo sapiens; BT-20, six days; read-out: approximated IC50, metabolic activity
Excerpt: as §1, §2

Structure (SMILES) | NOTCH1 surface presentation (NOTCH1) | IC50 (MDA-MB-436 cells) [µM] | IC50 (BT-20 cells) [µM]
COc1cccc(CNc2ccc(N3CCCCC3)cc2)c1OCc1cccs1 [compound C] | not hindered |  | 
Cc1ccc2[nH]c3c(c2c1)CCOC31CCN(Cc2ccccc2-c2ccccc2)CC1 [compound B] |  | 2 | 3.2
